Laboratory results reported in patent publication US9012655B2, “Antimicrobial/adjuvant compounds and methods” (Denouamed, Inc., priority 2011, dated 2015).
In brackets after ≈: the same amount, converted by molar mass.

Tests used:
E. coli D22 = test: MIC, NCCLS M7-A6 broth microdilution, E. coli D22; assay type: cell-based; settings: 35 degrees Celsius; for MIC E coli D22: 16 to 20 h; for MIC: Escherichia coli, D22, 16 to 20 h
Protocol: (§1) Susceptibilities to the compounds were determined using the National Committee for Clinical Laboratory Standards (NCCLS) M7-A6 broth microdilution method. Cation-adjusted Mueller-Hinton broth (Ca^2+, 25 μg/mL; Mg^2+, 12.5 μg/mL) microdilution panels were prepared to contain antimicrobial doubling dilution concentrations of an appropriate range. DMSO (dimethylsulfoxide) controls were incorporated into the panel to mimic the quantity of DMSO used in dissolving some of the compounds at the higher concentrations. Each final panel well volume was 100 μL with a bacterial inoculum of 5×10^5 CFU (colony forming units)/mL of the relevant bacterium. Panels were read following 16 to 20 h of incubation at 35 degrees Celsius in ambient air. The MIC (minimum inhibitory concentration) was defined as the lowest concentration of antimicrobial inhibiting visible growth.

[1] = tested on: Methicillin-Resistant Staph. aureus (MRSA); test: MIC, NCCLS M7-A6 broth microdilution, MRSA; assay type: cell-based; settings: 16 to 20 h, 35 degrees Celsius; for MIC: Staphylococcus aureus, MRSA
Protocol: as §1

AcpS enzyme = AcpS enzyme (Escherichia coli, UniProt P24224); test: Measurement of AcpS inhibition ([3H]acetyl-CoA incorporation into apo-ACP); assay type: biochemical; settings: % activity vs blank-subtracted counts; for % AcpS activity at 50 uM / activity at 50 µM: test compound 50 uM; for % AcpS activity @ 500 uM / remaining activity at 500 µM: test compound 500 uM
Protocol: [^3H]Acetyl-CoA was mixed as 1 volume of Perkin Elmer NET290 radiolabeled stock (e.g. 0.1 mCi/ml, 3.7 Ci/mmol in Na-acetate, pH 4.5-5.0=27 μM) with 1.2 volumes of 1 mM unlabelled acetyl-CoA (Sigma). Trichloroacetic acid was prepared as a 10% w/v solution. Bovine serum albumin was prepared as a 25 mg/ml solution in water. DTT was prepared as a 50 mM solution in water.
• 1. A standard reaction contained the following in a total volume of 10 μl:
• 2. Tubes were incubated at RT. [^3H]acetyl-CoA was added last to start the reaction. To stop the reaction, 2 μl was removed to a 1.5-ml microfuge tube containing 800 μl cold 10% TCA. Up to four time points were collected for each reaction, e.g. at 5 min, 10 min, 30 min, and 60 min. • 3. 20 μl of 25 mg/ml BSA was added to each tube, mixed and incubated on ice for 10 min, then centrifuged at 12,000 g for 5 min to form a pellet. Supernatant was removed using P1000. • 4. Each pellet was washed twice with 800 μl of cold 10% TCA each time, then centrifuged at 12,000 g for 5 min after each wash. The supernatant was discarded. Each pellet was resuspended in 50 μl of formic acid. The suspension was transferred to a scintillation vial and radioactivity was measured in 2 ml of liquid scintillation cocktail.
The random (stochastic) error in scintillation counting is proportional to the square root of the counts (not dpm) accumulated in the counting period; i.e. 10% for 100, 3.3% for 1,000, 1% for 10,000, etc. Provided radioactive counts (dpm) are in the thousands, the assay provides useful data. Results are reported in terms of % activity with respect to the blank-subtracted counts for working substrate. A % activity of less than about 40% is indicative of AcpS enzyme inhibition by the test compound at that concentration.

Sequence of AcpS enzyme (P24224 whole entry): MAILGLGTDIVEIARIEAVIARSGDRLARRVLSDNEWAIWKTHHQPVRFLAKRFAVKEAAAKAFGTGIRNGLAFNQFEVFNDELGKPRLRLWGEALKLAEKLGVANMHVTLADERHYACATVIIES

SMILES	MIC E coli D22 (E. coli D22) [µM]	MIC MRSA [1] [µM]	% AcpS activity at 50 uM (AcpS enzyme) [%]	% AcpS activity @ 500 uM (AcpS enzyme) [%]	MIC (E. coli D22) [µM]	MIC [1] [µM]	activity at 50 µM (AcpS enzyme) [%]	remaining activity at 500 µM (AcpS enzyme) [%]
CN(C)c1ccc(Cl)cc1-c1cc(-c2nn[nH]n2)cc(-c2cc(Cl)ccc2N(C)C)c1 [DNM0510]	>125	4 (≈ 1.81 µg/mL)	8.4	0.12				
FC(F)(F)Oc1ccccc1-c1cc(-c2nnn[nH]2)sc1-c1ccccc1OC(F)(F)F [DNM0550, 5-(4,5-Bis(2-(trifluoromethoxy)phenyl)thiophen-2-yl)-1H-tetrazole]					> 125	30 (≈ 14.2 µg/mL)	47.8	0.39
Clc1ccccc1-c1cc(-c2nnn[nH]2)sc1-c1ccccc1Cl [DNM0538, 5-(4,5-Bis(2-chlorophenyl)thiophen-2-yl)-1H-tetrazole]					> 125	30 (≈ 11.2 µg/mL)	82.2	0.58
Cc1ccc(-c2cc(-c3nnn[nH]3)sc2-c2ccc(C)cc2Cl)c(Cl)c1 [DNM0563, 5-(4,5-Bis(2-chloro-4-methylphenyl)thiophen-2-yl)-1H-tetrazole]					125 (≈ 50.2 µg/mL)	8 (≈ 3.21 µg/mL)	15.1	0.56
Cc1ccc(-c2cc(-c3nn[nH]n3)cc(-c3ccc(C)cc3-c3cccc(Cl)c3)c2)c(-c2cccc(Cl)c2)c1 [DNM0520]	>125	2 (≈ 1.09 µg/mL)		20.86				
Fc1ccc(-c2cc(-c3nn[nH]n3)cc(-c3ccc(F)c4ccccc34)c2)c2ccccc12 [DNM0539, 5-(3,5-Bis(4-fluoronaphthalen-1-yl)phenyl)-2H-tetrazole]					> 125	8 (≈ 3.48 µg/mL)		39.4
Cc1cc(Cl)ccc1-c1cc(-c2nn[nH]n2)cc(-c2ccc(Cl)cc2C)c1 [DNM0457]	60 (≈ 23.7 µg/mL)	8 (≈ 3.16 µg/mL)	1.56	0				
c1ccc(-c2cc(-c3nnn[nH]3)sc2-c2ccccc2-c2ccoc2)c(-c2ccoc2)c1 [DNM0560, 5-(4,5-Bis(2-(furan-3-yl)phenyl)thiophen-2-yl)-1H-tetrazole]					> 125	15 (≈ 6.55 µg/mL)	63.6	0.06
Cc1ccccc1-c1cc(-c2nnn[nH]2)sc1-c1ccccc1C [DNM0531, 5-(4,5-Bis(2-methylphenyl)thiophen-2-yl)-1H-tetrazole]					> 125	60 (≈ 19.9 µg/mL)	96.8	4.38
Clc1ccc(-c2cc(-c3nn[nH]n3)cc(-c3ccccc3-c3ccccc3)c2)cc1 [DNM0479]	>125	2 (≈ 0.818 µg/mL)	12.79	0.1				
CC(C)c1ccccc1-c1cc(-c2nn[nH]n2)cc(-c2ccccc2C(C)C)c1 [DNM0532]	>125	60 (≈ 23 µg/mL)	30.66	0.22				
c1ccc2c(c1)oc1c(-c3cc(-c4nnn[nH]4)sc3-c3cccc4c3oc3ccccc34)cccc12 [DNM0542, 5-(4,5-Bis(dibenzo[b,d]furan-4-yl)thiophen-2-yl)-1H-tetrazole]					> 125	2 (≈ 0.969 µg/mL)	9.58	0.7
c1ccc(C2CC2)c(-c2cc(-c3nnn[nH]3)sc2-c2ccccc2C2CC2)c1 [DNM0570]	125 (≈ 48.1 µg/mL)	15 (≈ 5.77 µg/mL)	33.7	0.19				
COc1ccc(-c2cc(-c3nnn[nH]3)sc2-c2ccc(OC)c(Cl)c2)cc1Cl [DNM0565, 5-(4,5-Bis(3-chloro-4-methoxyphenyl)thiophen-2-yl)-1H-tetrazole]					> 125	15 (≈ 6.5 µg/mL)	22.9	0.11
Cc1ccc(-c2cc(-c3nnn[nH]3)sc2-c2ccc(C)c(C)c2)cc1C [DNM0509, 5-(4,5-Bis(3,4-dimethylphenyl)thiophen-2-yl)-1H-tetrazole]					> 125	15 (≈ 5.41 µg/mL)	31.1	0.2
Cc1cc(Cl)ccc1-c1ccc(-c2ccc(Cl)cc2C)c(-c2nnn[nH]2)c1 [DNM0447, 5-(2,5-Bis(4-chloro-2-methylphenyl)phenyl)-1H-tetrazole]					> 125	15 (≈ 5.93 µg/mL)	32.6	0.47
CC(C)c1ccccc1-c1cc(-c2nnn[nH]2)sc1-c1ccccc1C(C)C [DNM0534, 5-(4,5-Bis(2-isopropylphenyl)thiophen-2-yl)-1H-tetrazole]					> 125	8 (≈ 3.11 µg/mL)	34	0
Cc1ccc(-c2cc(-c3nn[nH]n3)cc(-c3ccc(C)cc3Br)c2)c(Br)c1 [DNM0511]	>125	8 (≈ 3.87 µg/mL)	14.36	0				
CCc1ccccc1-c1cc(-c2nnn[nH]2)sc1-c1ccccc1CC [DNM0541, 5-(4,5-Bis(2-ethylphenyl)thiophen-2-yl)-1H-tetrazole]					> 125	30 (≈ 10.8 µg/mL)	63.1	0.3
Brc1ccccc1-c1sc(-c2nnn[nH]2)cc1-c1ccccc1C1CCCC1 [DNM0571]	>125	8 (≈ 3.61 µg/mL)	8.19	0.11				
COc1c(C)cc(-c2cc(-c3nnn[nH]3)sc2-c2cc(C)c(OC)c(C)c2)cc1C [DNM0564, 5-(4,5-Bis(4-methoxy-3,5-dimethylphenyl)thiophen-2-yl)-1H-tetrazole]					> 125	15 (≈ 6.31 µg/mL)	47.6	0.75
c1ccc(Oc2ccc(-c3ccc(-c4ccc(Oc5ccccc5)cc4)c(-c4nn[nH]n4)c3)cc2)cc1 [DNM0453]	>125	8 (≈ 3.86 µg/mL)		23.76				
Cc1ccccc1-c1cc(-c2nn[nH]n2)cc(-c2ccccc2C)c1 [DNM0529]	>125	30 (≈ 9.79 µg/mL)	91.56	0.16				
Cc1ccc(-c2cc(-c3nnn[nH]3)sc2-c2ccc(C)c(Cl)c2)cc1Cl [DNM0504, 5-(4,5-Bis(3-chloro-4-methylphenyl)thiophen-2-yl)-1H-tetrazole]					125 (≈ 50.2 µg/mL)	125 (≈ 50.2 µg/mL)	7.33	0.16
c1ccc(-c2ccccc2-c2cc(-c3nn[nH]n3)cc(-c3ccccc3-c3ccccc3)c2)cc1 [DNM0464]	>125	1 (≈ 0.451 µg/mL)	9.03	0.28				
Cc1ccc(-c2cc(-c3nnn[nH]3)sc2Cc2ccc(Cl)cc2)c2ccccc12 [DNM0577, 5-(5-(4-Chlorobenzyl)-4-(4-methylnaphthalen-1-yl)thiophen-2-yl)-1H-tetrazole]					> 125	8 (≈ 3.34 µg/mL)	5.54	0.4
CC(C)(C)c1ccc(-c2cc(-c3nnn[nH]3)sc2-c2ccc(C(C)(C)C)cc2)cc1 [DNM0546, 5-(4,5-Bis(4-tert-butylphenyl)thiophen-2-yl)-1H-tetrazole]					> 125	4 (≈ 1.67 µg/mL)	37.2	5.16
Fc1ccc(-c2cc(-c3nnn[nH]3)sc2Cc2ccc(Cl)cc2)c2ccccc12 [DNM0587, 5-(5-(4-Chlorobenzyl)-4-(4-fluoronaphthalen-1-yl)thiophen-2-yl)-1H-tetrazole]						8 (≈ 3.37 µg/mL)	2.13	0
Cc1ccc(-c2cc(-c3nn[nH]n3)cc(-c3cc(Cl)ccc3N(C)C)c2)c2ccccc12 [DNM0514]	>125	4 (≈ 1.76 µg/mL)	5.73	0.14				
Clc1ccc(Cc2sc(-c3nnn[nH]3)cc2-c2ccccc2-c2ccccc2)cc1 [DNM0588, 5-(4-(Biphenyl-2-yl)-5-(4-chlorobenzyl)thiophen-2-yl)-1H-tetrazole]						8 (≈ 3.43 µg/mL)	2.67	0
